From patent US20180303807A1, “ANDROGEN RECEPTOR LIGANDS” (DUKE UNIVERSITY, priority 2015, published 2018)

Molecular target: T1, AR (Homo sapiens, UniProt P10275)
T1 construct: expressed in transfected cells; host or cells: CV1 cells
T1 sequence (P10275 1-920): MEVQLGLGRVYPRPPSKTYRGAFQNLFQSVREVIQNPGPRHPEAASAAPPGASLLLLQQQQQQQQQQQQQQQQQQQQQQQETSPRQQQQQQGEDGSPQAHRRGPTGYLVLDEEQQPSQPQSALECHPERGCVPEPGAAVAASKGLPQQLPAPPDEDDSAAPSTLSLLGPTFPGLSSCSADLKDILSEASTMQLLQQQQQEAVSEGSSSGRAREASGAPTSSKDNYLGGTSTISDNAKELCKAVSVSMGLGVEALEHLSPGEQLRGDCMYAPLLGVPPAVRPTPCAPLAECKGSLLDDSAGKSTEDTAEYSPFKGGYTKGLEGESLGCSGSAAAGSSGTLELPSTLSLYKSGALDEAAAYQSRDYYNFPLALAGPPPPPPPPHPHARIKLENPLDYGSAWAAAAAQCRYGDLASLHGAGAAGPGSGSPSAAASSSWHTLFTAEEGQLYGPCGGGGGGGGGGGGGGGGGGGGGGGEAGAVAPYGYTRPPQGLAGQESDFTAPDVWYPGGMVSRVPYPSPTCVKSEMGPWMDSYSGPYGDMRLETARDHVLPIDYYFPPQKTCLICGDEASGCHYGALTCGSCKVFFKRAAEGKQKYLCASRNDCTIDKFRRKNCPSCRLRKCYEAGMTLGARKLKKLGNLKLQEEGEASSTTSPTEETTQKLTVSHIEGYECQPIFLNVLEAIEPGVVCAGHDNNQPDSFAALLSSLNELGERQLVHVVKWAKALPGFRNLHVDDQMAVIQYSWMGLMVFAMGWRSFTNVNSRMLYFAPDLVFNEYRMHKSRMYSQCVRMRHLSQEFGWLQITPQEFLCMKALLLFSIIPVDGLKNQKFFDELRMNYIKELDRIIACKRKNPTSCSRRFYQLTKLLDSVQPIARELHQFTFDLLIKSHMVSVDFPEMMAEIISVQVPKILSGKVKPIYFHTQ
Assay: Reporter gene assay, AR transcriptional (MMTV-Luc) in CV1 cells
Type: cell-based
Conditions: pcDNA-AR + MMTV-Luc, 0.1 nM R1881 plus test compound, 24 hrs, read-out: B1 = AR transcriptional IC50 (μM) in CV1 cells
Protocol: Reporter Gene Assay (IC50 determination, Table 2, B1-B3). CV1 cells were seeded into 96-well cell culture plates and transfected with Lipofectin. For AR transcriptional assays, the DNA mixture consisted of pcDNA-AR, MMTV-Luc (androgen responsive reporter gene), and Renilla-Luc (for assessing transfection efficiency and toxicity). Following overnight incubation, cells were induced with hormone (0.1 nM R1881 (synthetic AR agonist) plus increasing concentrations of test compound) for 24 hrs. Cells were lysed and luciferase activity was quantified using Dual Luciferase Reagent (DLR). IC50 determination was assessed using GraphPad Prism software.

Row | SMILES | IC50 [µM]
1 | CC1(C)CC(=O)C2=C(C1)Nc1ccc3nc(C#N)ccc3c1C2c1ccc(F)c(F)c1 (racemic) [Compound A52, (±)-12-(3,4-difluorophenyl)-9,9-dimethyl-11-oxo-7,8,9,10,11,12-hexahydrobenzo[b][4,7]phenanthroline-3-carbonitrile] | > 10
2 | CC1(C)CC2=C(C(c3ccc(F)c(F)c3)c3c(ccc4ncccc34)N2)S(=O)(=O)C1 (racemic) [Compound A53, (±)-12-(3,4-difluorophenyl)-9,9-dimethyl-8,9,10,12-tetrahydro-7H-thiopyrano[2,3-b][4,7]phenanthroline 11,11-dioxide] | > 10
3 | CN1CC(=O)C2=C(C1)Nc1ccc3ncccc3c1C2c1ccc(F)c(F)c1 (racemic) [Compound A54, (±)-12-(3,4-difluorophenyl)-9-methyl-8,9,10,12-tetrahydropyrido[4,3-b][4,7]phenanthrolin-11(7H)-one] | > 10
4 | CC1(C)CC(=O)C2=C(C1)Nc1ccc3nc(C(=O)O)ccc3c1C2c1ccc(F)c(F)c1 (racemic) [Compound A80, (±)-12-(3,4-difluorophenyl)-9,9-dimethyl-11-oxo-7,8,9,10,11,12-hexahydrobenzo[b][4,7]phenanthroline-3-carboxylic acid] | > 10
5 | Cc1ccc2c3c(ccc2n1)NC1=C(C(=O)CC(C)(C)C1)C3c1ccc(F)c(F)c1 (racemic) [Compound A81, (±)-12-(3,4-difluorophenyl)-3,9,9-trimethyl-8,9,10,12-tetrahydrobenzo[b][4,7]phenanthrolin-11(7H)-one] | > 10
6 | CC1(C)CC(=S)C2=C(C1)Nc1ccc3ncccc3c1C2c1ccc(F)c(F)c1 (racemic) [Compound A82, (±)-12-(3,4-difluorophenyl)-9,9-dimethyl-8,9,10,12-tetrahydrobenzo[b][4,7]phenanthroline-11(7H)-thione] | 9.1
7 | CC1(C)CC(=O)C2=C(C1)Nc1ccc3ncncc3c1C2c1ccc(F)c(F)c1 (racemic) [Compound A86, (±)-12-(3,4-difluorophenyl)-9,9-dimethyl-8,9,10,12-tetrahydropyrimido[5,4-a]acridin-11(7H)-one] | 1.8
8 | C[n+]1cccc2c3c(ccc21)NC1=C(C(=O)CC(C)(C)C1)C3c1ccc(F)c(F)c1 (racemic) [Compound A87, (±)-12-(3,4-difluorophenyl)-4,9,9-trimethyl-11-oxo-7,8,9,10,11,12-hexahydrobenzo[b][4,7]phenanthrolin-4-ium iodide] | 1.3
9 | CC1(C)CC(=O)C2=C(C1)Oc1ccc3ccccc3c1C2c1ccc(F)c(F)c1 (racemic) [Compound A89, (±)-12-(3,4-difluorophenyl)-9,9-dimethyl-9,10-dihydro-8H-benzo[a]xanthen-11(12H)-one] | 0.4

Next, values leading:

Row | IC50 [µM] | SMILES
10 | > 10 | CC1(C)CC(=O)C2=C(C1)Nc1cc(N3CCCC3)ccc1C2c1cc2ccccc2s1 (racemic) [Compound A94, (±)-9-(benzo[b]thiophen-2-yl)-3,3-dimethyl-6-(pyrrolidin-1-yl)-3,4,9,10-tetrahydroacridin-1(2H)-one]
11 | 0.5 | CC1(C)CC(=O)C2=C(C1)Nc1ccc3ccccc3c1C2c1cc2ccccc2s1 (racemic) [Compound A95, (±)-12-(benzo[b]thiophen-2-yl)-9,9-dimethyl-8,9,10,12-tetrahydrobenzo[a]acridin-11(7H)-one]
12 | > 10 | CC1(C)CC(=O)C2=C(C1)Nc1cc(N3CCCC3)ccc1C2c1ccc(Br)s1 (racemic) [Compound A98, (±)-9-(5-bromothiophen-2-yl)-3,3-dimethyl-6-(pyrrolidin-1l-yl)-3,4,9,10-tetrahydroacridin-1(2H)-one]
13 | 0.6 | CC1(C)CC(=O)C2=C(C1)Nc1ccc3nccnc3c1C2c1ccc(Cl)s1 (racemic) [Compound A99, (±)-12-(5-chlorothiophen-2-yl)-9,9-dimethyl-8,9,10,12-tetrahydropyrazino[2,3-a]acridin-11(7H)-one]
